# Experimental data taken from ChEMBL document CHEMBL1201862, “PubChem BioAssay data set” (2004).
# Calls of active or inactive are those of the source.
# Legend:
# [1] = biological target: T1, Apoptotic protease-activating factor 1 (Homo sapiens, UniProt O14727); assay: SAR analysis of small molecule Activators of Apaf-1 in a Fluorescent assay.; format: functional; conditions: read-out: EC50_Mean;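 also: caspase-3 cleavage of fluorogenic Rh110 DEVD substrate downstream of apoptosome activation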
# T1 sequence (O14727 whole entry): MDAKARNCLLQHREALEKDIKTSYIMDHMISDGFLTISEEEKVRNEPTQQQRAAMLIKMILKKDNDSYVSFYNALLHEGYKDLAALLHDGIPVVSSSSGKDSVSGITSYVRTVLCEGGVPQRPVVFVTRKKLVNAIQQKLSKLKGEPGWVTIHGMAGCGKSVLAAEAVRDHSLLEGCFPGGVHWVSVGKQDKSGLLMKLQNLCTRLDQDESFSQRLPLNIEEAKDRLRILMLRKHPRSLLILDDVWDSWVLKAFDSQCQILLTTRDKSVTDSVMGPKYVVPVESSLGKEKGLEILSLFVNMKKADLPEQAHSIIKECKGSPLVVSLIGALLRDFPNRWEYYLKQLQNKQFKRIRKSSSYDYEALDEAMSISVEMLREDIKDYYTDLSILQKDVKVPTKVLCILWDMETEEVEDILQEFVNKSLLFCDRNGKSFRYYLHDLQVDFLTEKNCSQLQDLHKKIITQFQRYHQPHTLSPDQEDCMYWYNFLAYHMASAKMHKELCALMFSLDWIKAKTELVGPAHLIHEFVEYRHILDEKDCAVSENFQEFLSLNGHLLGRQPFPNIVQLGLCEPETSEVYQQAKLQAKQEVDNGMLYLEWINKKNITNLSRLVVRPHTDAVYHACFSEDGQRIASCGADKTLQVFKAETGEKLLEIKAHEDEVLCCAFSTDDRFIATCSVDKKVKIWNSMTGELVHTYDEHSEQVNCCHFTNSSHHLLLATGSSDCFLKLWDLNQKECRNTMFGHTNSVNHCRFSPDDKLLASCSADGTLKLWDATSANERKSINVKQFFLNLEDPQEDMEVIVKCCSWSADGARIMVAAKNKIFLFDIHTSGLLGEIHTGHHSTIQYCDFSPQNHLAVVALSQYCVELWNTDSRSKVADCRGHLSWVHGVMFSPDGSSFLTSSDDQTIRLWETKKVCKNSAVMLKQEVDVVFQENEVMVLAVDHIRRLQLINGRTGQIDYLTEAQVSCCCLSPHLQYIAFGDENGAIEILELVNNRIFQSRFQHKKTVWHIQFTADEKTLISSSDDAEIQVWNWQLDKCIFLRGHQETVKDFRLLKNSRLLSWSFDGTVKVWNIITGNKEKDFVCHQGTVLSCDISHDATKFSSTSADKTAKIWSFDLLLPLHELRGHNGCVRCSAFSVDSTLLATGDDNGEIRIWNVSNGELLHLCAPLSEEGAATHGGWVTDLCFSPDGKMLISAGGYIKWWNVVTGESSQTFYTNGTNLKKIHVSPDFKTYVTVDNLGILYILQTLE
# [2] = biological target: T2, High affinity choline transporter 1 (Homo sapiens, UniProt Q9GZV3); assay: CHT inhibitors, dose response, cell-based, 10-point CRC, membrane potential dye (AID 588401); format: functional;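 also: membrane potential dye fluorescence of choline-evoked depolarization via CHT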
# T2 sequence (Q9GZV3 whole entry): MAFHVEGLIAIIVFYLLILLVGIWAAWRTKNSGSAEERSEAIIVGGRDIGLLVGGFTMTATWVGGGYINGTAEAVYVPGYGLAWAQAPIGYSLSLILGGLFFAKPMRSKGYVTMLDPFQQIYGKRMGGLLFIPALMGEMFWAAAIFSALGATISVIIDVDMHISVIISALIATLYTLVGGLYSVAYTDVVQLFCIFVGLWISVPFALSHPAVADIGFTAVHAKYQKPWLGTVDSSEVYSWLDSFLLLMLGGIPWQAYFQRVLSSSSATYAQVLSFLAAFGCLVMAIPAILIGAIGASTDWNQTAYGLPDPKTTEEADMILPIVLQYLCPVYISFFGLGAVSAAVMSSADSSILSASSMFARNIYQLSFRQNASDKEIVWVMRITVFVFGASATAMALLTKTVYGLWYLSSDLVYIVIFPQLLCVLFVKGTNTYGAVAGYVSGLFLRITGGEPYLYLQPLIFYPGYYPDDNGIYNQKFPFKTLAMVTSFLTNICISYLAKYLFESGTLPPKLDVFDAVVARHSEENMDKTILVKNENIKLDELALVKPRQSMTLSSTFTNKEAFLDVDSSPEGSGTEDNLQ
# Streptokinase A = biological target: T3, Streptokinase A (Streptococcus pyogenes serotype M1, UniProt P10520); assay: S. pyogenes streptokinase expression inhibitors, potency, dose response, plasminogen activation absorbance, OD405 (AID 1914); format: functional, Streptococcus pyogenes M1 GAS;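 also: secreted streptokinase activity via plasminogen activation per viability signal from cell pellet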
# T3 sequence (P10520 whole entry): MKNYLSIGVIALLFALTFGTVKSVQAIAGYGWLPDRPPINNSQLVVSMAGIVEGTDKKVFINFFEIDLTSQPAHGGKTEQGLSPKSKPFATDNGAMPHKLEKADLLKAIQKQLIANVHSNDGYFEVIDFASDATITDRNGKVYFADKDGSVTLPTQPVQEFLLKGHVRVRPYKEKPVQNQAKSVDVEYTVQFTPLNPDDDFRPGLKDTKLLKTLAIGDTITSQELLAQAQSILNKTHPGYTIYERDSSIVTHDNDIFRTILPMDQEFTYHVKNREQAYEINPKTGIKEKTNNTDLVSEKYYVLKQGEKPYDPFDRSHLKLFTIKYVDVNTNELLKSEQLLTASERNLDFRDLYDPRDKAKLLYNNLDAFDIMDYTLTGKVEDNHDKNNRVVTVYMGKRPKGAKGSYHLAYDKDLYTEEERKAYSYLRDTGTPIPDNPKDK
# Streptococcus = assay: Group A Streptococcus viability loss, dose response, counter-screen for streptokinase expression inhibitor project, luminescence, BacTiterGlo (AID 1915); format: functional, organism-based;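 also: potency for reduction of bacterial viability or growth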
# [3] = test system: Streptococcus sp. 'group A'; assay: growth inhibition of control SK(-) GAS strain, dose response, counter-screen for streptokinase expression inhibitor project, luminescence, kanamycin, BacTiterGlo, confirmation (AID 1900); format: functional, organism-based
# [4] = biological target: FAD-linked sulfhydryl oxidase ALR (Homo sapiens, UniProt P55789); assay: inhibitors of human ALR sulfhydryl oxidase, dose response, biochemical, H2O2 detection, luminescence, cherry-pick (AID 493248)
# [5] = biological target: T2, High affinity choline transporter 1; assay: CHT inhibitors, dose response, cell-based, 5-point CRC, membrane potential dye (AID 504840); format: functional
# [6] = Artemis endonuclease inhibitor potency, dose response, biochemical, fluorescence intensity (AID 720701); format: functional;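 also: Artemis endonuclease enzyme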
# [7] = AlphaScreen signal interference compounds, dose response, artefact control for ARNT-TACC3 interaction inhibitor project, biochemical, luminescence, cherry-pick (AID 651705); format: functional;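 also: AlphaScreen bead proximity signal that flags compounds interfering with the detection technology; potency reflects signal decrease which marks the compound as an assay artifact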
# [8] = biological target: Potassium voltage-gated channel subfamily KQT member 2 (Rattus norvegicus, UniProt O88943); assay: KCNQ2 potassium channel inhibitors, dose response, cell-based, automated electrophysiology, set II, rat KCNQ2 (AID 588637); format: functional
# H9c2 = assay: cells; format: functional, cell-based; conditions: Rattus norvegicus, H9c2, Myocardium;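 also: confirmatory concentration-response retest of ultra-high-throughput screening hits for modulation of myocardial damage; cell death induced by hydrogen peroxide oxidative stress; compound pretreatment for 60 min then peroxide exposure for 2 h; potency is for protecting the cells against peroxide damage rather than for killing them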
# [9] = biological target: T4, Small ubiquitin-related modifier 1 (Homo sapiens, UniProt P63165); assay: inhibitors of SUMO1 peptide binding, dose response, biochemical, fluorescence polarization, uHTS hits (AID 624382); format: functional; conditions: read-out: IC50_Mean
# [10] = biological target: T5, Aryl hydrocarbon receptor (Homo sapiens, UniProt P35869); conditions: Potency;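 also: confirmatory quantitative high-throughput screen measuring activation of the AhR signaling pathway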
# T5 sequence (P35869 whole entry): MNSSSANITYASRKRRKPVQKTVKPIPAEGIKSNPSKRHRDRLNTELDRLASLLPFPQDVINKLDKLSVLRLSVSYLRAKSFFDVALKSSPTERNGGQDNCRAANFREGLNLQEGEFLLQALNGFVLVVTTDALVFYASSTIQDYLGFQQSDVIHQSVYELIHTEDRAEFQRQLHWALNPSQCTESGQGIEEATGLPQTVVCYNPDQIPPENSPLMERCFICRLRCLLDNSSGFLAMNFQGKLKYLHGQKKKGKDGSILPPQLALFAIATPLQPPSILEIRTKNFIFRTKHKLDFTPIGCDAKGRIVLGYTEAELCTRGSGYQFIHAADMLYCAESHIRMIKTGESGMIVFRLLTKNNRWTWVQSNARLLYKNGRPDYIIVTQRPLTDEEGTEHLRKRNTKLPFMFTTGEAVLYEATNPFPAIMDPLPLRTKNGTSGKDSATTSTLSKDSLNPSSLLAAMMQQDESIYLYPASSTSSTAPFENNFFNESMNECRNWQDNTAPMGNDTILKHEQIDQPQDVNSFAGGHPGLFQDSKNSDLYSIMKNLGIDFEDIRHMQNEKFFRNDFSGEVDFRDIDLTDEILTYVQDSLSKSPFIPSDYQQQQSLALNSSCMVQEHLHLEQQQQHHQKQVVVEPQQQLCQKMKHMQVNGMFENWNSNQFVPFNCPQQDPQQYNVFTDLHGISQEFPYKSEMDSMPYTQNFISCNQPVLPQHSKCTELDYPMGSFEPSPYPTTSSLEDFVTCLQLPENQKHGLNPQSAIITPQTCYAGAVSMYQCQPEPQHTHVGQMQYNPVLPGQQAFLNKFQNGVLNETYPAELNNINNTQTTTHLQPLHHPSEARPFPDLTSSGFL
# SN12K1 = assay: cells; format: functional; conditions: Homo sapiens
# P388 = assay: cells; format: functional; conditions: Mus musculus
# [11] = biological target: T6, Rac GTPase-activating protein 1 (Homo sapiens, UniProt Q9H0H5); assay: MgcRacGAP GTPase-activating activity inhibitors, confirmation, biochemical, ADP Hunter fluorescence, primary and confirmatory (AID 624330); format: functional
# T6 sequence (Q9H0H5 whole entry): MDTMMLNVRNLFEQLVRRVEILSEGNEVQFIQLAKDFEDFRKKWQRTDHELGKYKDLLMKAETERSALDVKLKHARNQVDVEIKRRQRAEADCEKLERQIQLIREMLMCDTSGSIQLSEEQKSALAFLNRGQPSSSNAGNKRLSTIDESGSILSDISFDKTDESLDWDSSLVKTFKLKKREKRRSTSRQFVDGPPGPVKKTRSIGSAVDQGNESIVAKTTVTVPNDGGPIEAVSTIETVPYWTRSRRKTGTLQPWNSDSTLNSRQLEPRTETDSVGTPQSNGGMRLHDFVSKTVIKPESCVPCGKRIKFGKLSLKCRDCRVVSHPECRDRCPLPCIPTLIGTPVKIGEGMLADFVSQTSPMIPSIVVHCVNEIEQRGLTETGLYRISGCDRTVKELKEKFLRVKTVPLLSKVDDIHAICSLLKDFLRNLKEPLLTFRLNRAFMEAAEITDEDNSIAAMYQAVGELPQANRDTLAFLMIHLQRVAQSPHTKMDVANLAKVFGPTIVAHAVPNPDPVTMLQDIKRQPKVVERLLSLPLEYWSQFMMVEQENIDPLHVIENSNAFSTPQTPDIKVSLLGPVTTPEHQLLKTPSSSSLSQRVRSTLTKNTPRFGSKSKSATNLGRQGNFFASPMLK
# P388/ADR = assay: cells; format: functional; conditions: Mus musculus
# [12] = biological target: T4, Small ubiquitin-related modifier 1; assay: inhibitors of SUMO1 partner interactions, dose response, biochemical, FRET (AID 624383); format: functional; conditions: read-out: IC50_Mean
# [13] = biological target: Hepatocyte nuclear factor 4-alpha (Homo sapiens, UniProt P41235); format: functional, cell-based;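 also: biochemical luminescence-based dose-response counterscreen measuring inhibition of HNF4 dimerization, run alongside a screen for blockers of ABHD5–perilipin-5 interaction; split luciferase complementation of HNF4 fusion proteins in cell lysate measuring dimerization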
# [14] = Shn3 3'UTR reporter inhibitors, dose response, cell-based, Clone20 osteoblasts, firefly luciferase, cherry-picked (AID 624132); format: functional;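 also: firefly luciferase luminescence from reporter carrying the Shn3 3'UTR in osteoblasts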
# [15] = control 3'UTR Renilla luciferase suppression, dose response, counter-screen for Shn3 inhibitor project, cell-based, Clone20-Shn3RL, cherry-picked (AID 624133); format: functional
# Protein Wnt-3a = Protein Wnt-3a (Mus musculus, UniProt P27467); assay: Wnt3a-driven reporter signaling inhibition, dose response, selectivity assay for Gli-SUFU antagonist project, Wnt-LIGHT cells, luminescence (AID 651570); format: functional; conditions: read-out: IC50_Mean;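 also: Wnt-LIGHT reporter cells stimulated with conditioned medium from Wnt3a-producing cells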
# [16] = HepG2 cell cytotoxicity, dose response, cytotoxicity control for Shn3 inhibitor project, CellTiter-Glo, cherry-picked (AID 624134); format: functional, cell-based
# [17] = biological target: Adenosylmethionine-8-amino-7-oxononanoate aminotransferase (Mycobacterium tuberculosis, UniProt P9WQ81); assay: Mycobacterium tuberculosis BioA enzyme inhibitor Measured in Biochemical System Using Plate Reader - 2163-02_Inhibitor_Dose_CherryPick_Activity.; format: functional, Mycobacterium tuberculosis UT205
# Chain of Adenosylmethionine-8-amino-7-oxononanoate aminotransferase (P9WQ81 whole entry): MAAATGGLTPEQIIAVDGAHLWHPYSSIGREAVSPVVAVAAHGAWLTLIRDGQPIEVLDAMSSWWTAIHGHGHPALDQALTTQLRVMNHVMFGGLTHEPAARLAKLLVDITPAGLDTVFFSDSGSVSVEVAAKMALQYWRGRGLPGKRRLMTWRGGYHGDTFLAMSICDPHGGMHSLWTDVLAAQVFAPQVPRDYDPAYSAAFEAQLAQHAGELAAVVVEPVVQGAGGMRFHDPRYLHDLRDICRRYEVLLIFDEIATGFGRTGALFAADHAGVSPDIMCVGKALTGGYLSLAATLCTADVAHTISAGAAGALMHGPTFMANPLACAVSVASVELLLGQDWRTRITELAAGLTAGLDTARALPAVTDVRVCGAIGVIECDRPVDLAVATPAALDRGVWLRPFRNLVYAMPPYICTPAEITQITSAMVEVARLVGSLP
# T4 sequence (P63165 whole entry): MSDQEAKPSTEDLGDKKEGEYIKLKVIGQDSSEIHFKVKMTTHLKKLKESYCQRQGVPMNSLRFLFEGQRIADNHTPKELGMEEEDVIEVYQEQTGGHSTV
# Chain of Hepatocyte nuclear factor 4-alpha (P41235 whole entry, the tested form may be a part): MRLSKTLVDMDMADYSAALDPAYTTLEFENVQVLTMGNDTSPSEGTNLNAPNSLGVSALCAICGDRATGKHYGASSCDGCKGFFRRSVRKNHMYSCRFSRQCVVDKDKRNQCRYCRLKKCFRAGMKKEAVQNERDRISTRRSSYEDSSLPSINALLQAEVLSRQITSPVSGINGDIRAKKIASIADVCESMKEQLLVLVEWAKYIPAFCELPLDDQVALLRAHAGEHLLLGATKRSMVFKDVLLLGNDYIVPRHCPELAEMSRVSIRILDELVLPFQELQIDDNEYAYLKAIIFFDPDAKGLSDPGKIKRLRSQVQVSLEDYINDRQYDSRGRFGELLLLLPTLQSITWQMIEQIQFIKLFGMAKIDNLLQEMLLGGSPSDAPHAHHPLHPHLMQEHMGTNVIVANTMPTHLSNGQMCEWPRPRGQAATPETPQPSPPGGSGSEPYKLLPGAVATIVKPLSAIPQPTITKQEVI
# Chain of Potassium voltage-gated channel subfamily KQT member 2 (O88943 whole entry): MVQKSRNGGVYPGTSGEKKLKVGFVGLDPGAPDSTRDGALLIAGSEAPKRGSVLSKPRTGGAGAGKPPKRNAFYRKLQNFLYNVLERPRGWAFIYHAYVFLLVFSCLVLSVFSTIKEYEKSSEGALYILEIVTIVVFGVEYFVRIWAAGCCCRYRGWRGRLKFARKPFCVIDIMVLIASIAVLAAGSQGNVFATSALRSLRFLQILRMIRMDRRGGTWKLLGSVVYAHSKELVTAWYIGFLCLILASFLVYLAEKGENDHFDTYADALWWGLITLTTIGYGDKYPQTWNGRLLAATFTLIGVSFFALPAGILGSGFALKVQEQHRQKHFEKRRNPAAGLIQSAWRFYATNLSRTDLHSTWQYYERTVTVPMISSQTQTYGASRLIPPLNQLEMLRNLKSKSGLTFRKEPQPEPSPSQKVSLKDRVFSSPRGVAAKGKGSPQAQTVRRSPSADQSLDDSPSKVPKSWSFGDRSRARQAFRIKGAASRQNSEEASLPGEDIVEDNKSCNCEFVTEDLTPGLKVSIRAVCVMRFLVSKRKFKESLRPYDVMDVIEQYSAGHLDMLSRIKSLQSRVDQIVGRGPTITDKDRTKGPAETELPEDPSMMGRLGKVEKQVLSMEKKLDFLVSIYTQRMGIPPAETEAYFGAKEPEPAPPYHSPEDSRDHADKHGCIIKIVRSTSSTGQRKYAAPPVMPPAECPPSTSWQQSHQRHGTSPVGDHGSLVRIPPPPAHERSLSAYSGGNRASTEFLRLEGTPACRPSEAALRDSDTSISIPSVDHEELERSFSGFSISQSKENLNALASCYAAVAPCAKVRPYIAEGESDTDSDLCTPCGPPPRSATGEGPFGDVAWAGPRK
# Chain of Protein Wnt-3a (P27467 whole entry): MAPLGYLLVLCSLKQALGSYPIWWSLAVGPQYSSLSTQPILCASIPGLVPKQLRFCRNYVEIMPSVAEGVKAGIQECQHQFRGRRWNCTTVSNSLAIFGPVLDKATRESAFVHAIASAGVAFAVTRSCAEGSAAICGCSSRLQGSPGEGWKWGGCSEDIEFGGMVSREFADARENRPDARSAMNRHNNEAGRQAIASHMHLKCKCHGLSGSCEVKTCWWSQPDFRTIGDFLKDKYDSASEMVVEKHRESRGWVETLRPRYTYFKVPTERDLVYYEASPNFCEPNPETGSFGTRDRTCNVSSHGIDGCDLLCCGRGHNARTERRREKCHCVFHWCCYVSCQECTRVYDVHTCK
# Chain of FAD-linked sulfhydryl oxidase ALR (P55789 whole entry): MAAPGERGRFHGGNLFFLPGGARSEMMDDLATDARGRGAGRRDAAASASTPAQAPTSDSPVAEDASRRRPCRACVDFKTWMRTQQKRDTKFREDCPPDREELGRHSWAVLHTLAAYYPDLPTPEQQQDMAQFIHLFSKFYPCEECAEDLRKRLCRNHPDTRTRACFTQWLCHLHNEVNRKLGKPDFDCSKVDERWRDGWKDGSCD
compound,measurement,setting,value
CC(=O)c1ccc(N2C(=O)CC3(CC(c4ccc(Cl)cc4)=NO3)C2=O)cc1 (centres undefined),EC50,[1],> 100 µM (inactive)
N#C/C(=N\Nc1ccc(Cl)cc1)C(N)=S,IC50,[2],2.04 µM (active)
same,EC50,Streptokinase A,> 150 µM (not active)
same,EC50,Streptococcus,> 150 µM (not active)
same,EC50,[3],> 150 µM (not active)
same,AC50,[4],7.86 µM (active)
same,IC50,[5],5.01 µM (active)
C/C(CC(=O)Nc1ccc(N(C)C)cc1)=N\NC(=O)c1ccccn1,IC50,[6],> 20 µM (inactive)
same,AC50,[7],78 µM (active)
CCC(CC)C(=O)N(CCc1ccc(OC)cc1)Cc1nc(O)c2ccccc2n1,IC50,[8],12.4 µM (active)
same,IC50,H9c2,> 79 µM (inactive)
O=c1oc2cc(O)ccc2c2oc3cc(O)ccc3c12 [COUMESTROL],IC50,[9],> 66.6 µM (inactive)
same,AC50,[10],50.1 µM (inconclusive)
same,GI50,SN12K1,50 µM (inactive)
same,GI50,P388,27.4 µM (inactive)
same,IC50,[11],32.3 µM (active)
same,GI50,P388/ADR,26.2 µM (inactive)
same,IC50,[12],14.7 µM (active)
O=C(NCc1ccccc1)C(C1CC1)n1c(=O)c(-c2ccco2)nc2ccccc21 (centres undefined),IC50,[13],6.09 µM (active)
C[C@@H]1COC(=O)[C@@H](NC(=O)OCC2c3ccccc3-c3ccccc32)C/C=C\C[C@@H](CC(=O)N(CCO)Cc2ccccc2)C(=O)N1,AC50,[14],1.89 µM (active)
same,AC50,[15],3.59 µM (active)
same,IC50,Protein Wnt-3a,3.34 µM (active)
same,AC50,[16],> 70 µM (inactive)
Cc1c2cnn(CC(=O)NCc3ccccn3)c(=O)c2c(C)n1Cc1ccc(Cl)cc1,AC50,[17],2.49 µM (active)
